Results from patent publication US11109819B2, “System and method for quantitatively mapping mitochondrial membrane potential” (The General Hospital Corporation, priority 2016, dated 2021).
Entries after “also recorded” stand apart in the source; their conditions may differ.

Assays:
[1] = Time course of tracer concentration to steady state (FIG. 4, FIG. 11); format: in vivo, domestic swine
From the text: Applicants use a few administration methods including a constant infusion, a pulse or bolus injection or a combination of a constant infusion a pulse or bolus injection. To date, most of Applicants work has used the kinetic approach because it carries the complete information available from our measurements. By analyzing the kinetic data (concentration vs time), Applicants can infer the steady state based on the ratio of the tissue concentration to the plasma concentration. […] The addition of the pulse or bolus injection to the constant infusion can shorten the time needed to impose the steady state for TPP^+. In this case both the plasma and myocardial concentrations become constant after about 90 minutes. The two color pictures are from studies in the same pig but measured on different days, one using constant infusion and the other the kinetic protocol. Note the excellent agreement between the two methods.

[2] = Comparison of myocardial kinetics of TPP+ and Flurpiridaz (FIG. 4); format: in vivo
From the text: FIG. 4 is a graphical illustration depicting comparison of myocardial kinetics of TPP^| and Flurpiridaz. The black line (the top line) depicts Flurpiridaz kinetics; whereas, the red line (the bottom line) depicts TPP^+ kinetics. Concentrations are normalized to remove the effect of injected radioactivity dose.
To provide a direct observation Applicants compared the kinetics of ^18F-TPP^+ to those of ^18F-Flurppiridaz, a tracer with high first pass capillary extraction (E>0.9). […] Thus it is unlikely that TPP^+ can provide useful myocardial flow measurements, per se.

[3] = Arterial and venous blood sampling of 18F-TPP+, whole blood to plasma concentration ratio; format: in vivo, domestic swine
Procedure: (§1) Pigs were fasted 12 hours prior to induction of anesthesia, sedated with 4.4 mg/kg Telazol, placed on 5% masked isoflurane, intubated, maintained with 1.5% isoflurane and mechanically ventilated. Vital signs were monitored continuously. Vascular access was obtained via the femoral veins for injection of PET radiotracer and iodinated contrast media. An arterio-venous shunt was placed in the left femoral artery for blood withdrawal.
Arterial blood sampling of ^18F-TPP^+ were drawn every 10 seconds for the first 3 minutes, then at 1 minute intervals for 5 minutes, and at increasing intervals until 120 minutes post injection. In two studies, venous several blood samples were also drawn at 5, 10, 15, 30, 60 and 90 minutes for comparison with arterial samples. All blood samples were centrifuged to determine plasma and red cell concentration histories. Concentration ratios of whole blood to plasma were computed.

[4] = Dynamic PET/CT with Logan plot, parametric map of 18F-TPP+ volume of distribution Vd; format: in vivo, domestic swine; conditions: pig with experimental tissue injury in LAD territory, FIG. 8
Procedure: The study cohort consisted of n=9 domestic swine which were divided into two groups, control (n=6) and tissue injury (scar) (n=3). […] Pigs were housed and maintained under the supervision of the Massachusetts General Hospital Animal Care and Use Committee. Studies were conducted serially, one pig at a time, from August 2014 till October 2015. The weight of the pigs at scan averaged 53.1 kg with a range from 30-92 kg.
as §1, with “An arterio-venous shunt was placed in the left femoral artery for blood withdrawal.” left out
PET Scans were performed on a Siemens Biograph PET/CT scanner: A planar x-ray topogram was performed to define the field of view (FOY) with the heart centered for computed tomography (CT), CT-angiogram (CTA) and PET acquisitions. […] Each frame was reconstructed using a filtered back projection algorithm to yield a radioactivity concentration map in units of Bq/cc with 83 slices and a voxel size of 2.14×2.14×3 mm^3.
Dynamic PET data were analyzed using a Logan plot (Logan, Fowler et al. 1990) to produce parametric images of the ^18F-TPP^+ volume of distribution, Vd and reoriented into the short axis projection. […]

[5] = mouse tissues; FIGS. 1-5 of US 2013/0064768 A1; cited from earlier work
[6] = in vivo; cited from earlier work

## [18F]c1ccc([P+](c2ccccc2)(c2ccccc2)c2ccccc2)cc1 [^18F-TPP^+, ^18F-tetraphenylphosphonium]
[1]; in a subject
  time remaining in the steady state: at least 2 hours
[1]; in vivo tissue, FIG. 4 and FIG. 11
  time to reach a steady state in subject / tissue: within minutes; also recorded: within two hours
[1]; intravenous pulse of TPP+ followed by constant infusion, FIG. 11
  time after which plasma and myocardial concentrations become constant: about 90 minutes
[2]
  accumulation in the myocardium: accumulates slowly in the myocardium
[2]; myocardium
  extraction compared with 18F-Flurppiridaz: much lower
  kinetics compared with 18F-Flurppiridaz: much slower kinetics
[3]; constant value after injection
  concentration ratio for whole blood versus plasma: 0.95
[3]; in vivo
  time after injection at which whole blood versus plasma ratio became constant: about 10 minutes
  time the whole blood versus plasma ratio remained constant (duration of measurement): 120 min
[3]; samples obtained at least 10 minutes after injection
  agreement of venous and arterial samples: good agreement
[4]; areas in other vascular territories
  volume of distribution Vd: 25 mL/cc
[4]; core of the injury
  volume of distribution Vd: 2 mL/cc

## C[P+](c1ccccc1)(c1ccccc1)c1ccccc1 [TPMP, triphenylmethylphosphonium^+]
[5]
  reaching a steady state within an hour: none of MitoQ, DecylTPP, FluroUndecylTPP and TPMP reach a steady state

## CC(C)(C)n1ncc(OCc2ccc(COCCF)cc2)c(Cl)c1=O [^18F-Flurppiridaz]
[6]
  first pass capillary extraction E: > 0.9

## CCCCCCCCCC[P+](c1ccccc1)(c1ccccc1)c1ccccc1 [DecylTPP]
[5]
  reaching a steady state within an hour: none of MitoQ, DecylTPP, FluroUndecylTPP and TPMP reach a steady state

## COC1=C(OC)C(=O)C(CCCCCCCCCC[P+](c2ccccc2)(c2ccccc2)c2ccccc2)=C(C)C1=O [MitoQ]
[5]
  reaching a steady state within an hour: none of MitoQ, DecylTPP, FluroUndecylTPP and TPMP reach a steady state
